Molecules are shown by their SMILES.

Our source for the IC50 values is patent US12187723B2 (BRISTOL-MYERS SQUIBB COMPANY, priority 2019, dated 2025).

The target in this test is T1, human TLR8 (Homo sapiens, UniProt Q9NR97).
T1 construct: host or cells: HEK-Blue cells
T1 sequence (Q9NR97 27-1041): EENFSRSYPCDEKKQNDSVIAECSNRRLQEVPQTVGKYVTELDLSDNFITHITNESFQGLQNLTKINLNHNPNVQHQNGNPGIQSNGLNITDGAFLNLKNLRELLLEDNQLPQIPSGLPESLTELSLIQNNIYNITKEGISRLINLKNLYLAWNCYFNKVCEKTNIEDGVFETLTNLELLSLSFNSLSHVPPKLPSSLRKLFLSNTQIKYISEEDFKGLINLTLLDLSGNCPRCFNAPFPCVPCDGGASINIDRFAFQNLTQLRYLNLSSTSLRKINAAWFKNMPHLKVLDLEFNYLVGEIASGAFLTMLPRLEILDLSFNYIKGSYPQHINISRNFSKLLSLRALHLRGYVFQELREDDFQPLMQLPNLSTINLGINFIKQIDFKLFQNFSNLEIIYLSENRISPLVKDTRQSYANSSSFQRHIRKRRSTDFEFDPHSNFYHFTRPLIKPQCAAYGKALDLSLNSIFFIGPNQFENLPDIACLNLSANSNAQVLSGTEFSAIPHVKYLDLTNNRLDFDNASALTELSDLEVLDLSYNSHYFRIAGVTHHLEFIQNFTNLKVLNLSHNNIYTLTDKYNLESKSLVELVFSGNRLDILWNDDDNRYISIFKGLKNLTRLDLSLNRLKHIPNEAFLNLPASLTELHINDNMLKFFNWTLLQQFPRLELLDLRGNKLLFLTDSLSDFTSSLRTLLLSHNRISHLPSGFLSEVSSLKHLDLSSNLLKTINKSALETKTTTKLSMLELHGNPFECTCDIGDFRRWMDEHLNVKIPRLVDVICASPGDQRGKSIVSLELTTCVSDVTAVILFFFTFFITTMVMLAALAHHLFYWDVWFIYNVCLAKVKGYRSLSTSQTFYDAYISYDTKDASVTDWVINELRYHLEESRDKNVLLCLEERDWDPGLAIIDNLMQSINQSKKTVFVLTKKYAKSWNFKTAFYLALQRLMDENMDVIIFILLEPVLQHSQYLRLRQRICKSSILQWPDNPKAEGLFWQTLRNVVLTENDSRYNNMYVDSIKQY
The test is described as follows: TLR8 inhibition reporter assay (HEK-Blue SEAP). Format: cell-based. Particulars: HEK-Blue cells overexpressing human TLR8, R848 15.9 μM, 22 hour incubation. In short, it runs like this: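 Compound treatment: 30 min, RT, 0.05 nM–50 μM final. Agonist: TLR7 gardiquimod 7.5 μM; TLR8 R848 15.9 μM; TLR9 ODN2006 5 nM. Incubation 22 h, 37 °C, 5% CO2. Readout SEAP, HEK-Blue Detection.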
(A reporter such as luciferase makes a cellular process visible.)
`Cc1cc2c(cc1-c1cc(C)c3ncnn3c1)[nH]c(=O)n2[C@H]1CCCN(C)C1` [Example 11, (S)-6-methyl-5-(8-methyl-[1,2,4]triazolo[1,5-a]pyridin-6-yl)-1-(1-methylpiperidin-3-yl)-1,3-dihydro-2H-benzo[d]imidazol-2-one] came in with an IC50 of 143 nM. In the case of `COc1cc(-c2cc3[nH]c(=O)n(C4CCC(N5CCCC5)CC4)c3cc2C(C)C)cn2ncnc12` (stereo not drawn) [Example 231, 6-isopropyl-5-(8-methoxy-[1,2,4]triazolo[1,5-a]pyridin-6-yl)-1-(4-(pyrrolidin-1-yl)cyclohexyl)-1,3-dihydro-2H-benzo[d]imidazol-2-one], the IC50 turned out to be 0.81 nM.

On to `COc1cc(-c2cc3[nH]c(=O)n(C4CCC(N5CC(O)(C(F)(F)F)C5)CC4)c3cc2C(C)C)cn2ncnc12` (single isomer, unassigned) [Example 241, 1-(4-(3-hydroxy-3-(trifluoromethyl)azetidin-1-yl)cyclohexyl)-6-isopropyl-5-(8-methoxy-[1,2,4]triazolo[1,5-a]pyridin-6-yl)-1,3-dihydro-2H-benzo[d]imidazol-2-one], for which the IC50 came to 0.49 nM. The value for `CCc1cc2c(cc1-c1cc(OC)c3ncnn3c1)[nH]c(=O)n2[C@@H]1CCCN(CC2CCCC2)C1` [Example 209, (R)-1-(1-(cyclopentylmethyl)piperidin-3-yl)-6-ethyl-5-(8-methoxy-[1,2,4]triazolo[1,5-a]pyridin-6-yl)-1,3-dihydro-2H-benzo[d]imidazol-2-one] was 20.4 nM; that for `CCc1cc2c(cc1-c1cc(OC)c3ncnn3c1)[nH]c(=O)n2[C@H]1CC[C@@H](NC2COC2)CC1` [Example 170, 6-ethyl-5-(8-methoxy-[1,2,4]triazolo[1,5-a]pyridin-6-yl)-1-((1s,4s)-4-(oxetan-3-ylamino)cyclohexyl)-1,3-dihydro-2H-benzo[d]imidazol-2-one] was 1.27 nM. `CCc1cc2c(cc1-c1cc(OC)c3ncnn3c1)[nH]c(=O)n2[C@@H]1CCCN(C)C1` [Example 174, (R)-6-ethyl-5-(8-methoxy-[1,2,4]triazolo[1,5-a]pyridin-6-yl)-1-(1-methylpiperidin-3-yl)-1,3-dihydro-2H-benzo[d]imidazol-2-one] had an IC50 of 1.39 nM. To `COc1cc(-c2cc3[nH]c(=O)n([C@H]4CC[C@H](N(CC(C)C)CC(C)C)CC4)c3cc2C(C)C)cn2ncnc12` [Example 205, 1-((1r,4r)-4-(diisobutylamino)cyclohexyl)-6-isopropyl-5-(8-methoxy-[1,2,4]triazolo[1,5-a]pyridin-6-yl)-1,3-dihydro-2H-benzo[d]imidazol-2-one] belongs 1.63 nM; to `COc1cc(-c2cc3[nH]c(=O)n([C@@H]4CCCN(C5CCCOC5)C4)c3cc2C(C)C)cn2ncnc12` (single isomer, unassigned) [Example 219], 0.15 nM.

On to `COc1cc(-c2cc3[nH]c(=O)n([C@H]4CC[C@@H](N(C)C)CC4)c3cc2C(C)C)cn2ncnc12` [Example 191, 1-((1s,4s)-4-(dimethylamino)cyclohexyl)-6-isopropyl-5-(8-methoxy-[1,2,4]triazolo[1,5-a]pyridin-6-yl)-1,3-dihydro-2H-benzo[d]imidazol-2-one], for which half-maximal inhibition (IC50) required 0.58 nM.

Compound `CCc1cc2c(cc1-c1cc(OC)c3ncnn3c1)[nH]c(=O)n2[C@@H]1CCCN(CC(C)C)C1` [Example 177, (R)-6-ethyl-1-(1-isobutylpiperidin-3-yl)-5-(8-methoxy-[1,2,4]triazolo[1,5-a]pyridin-6-yl)-1,3-dihydro-2H-benzo[d]imidazol-2-one] had an IC50 of 4.34 nM.

Turning to `COc1cc(-c2cc3[nH]c(=O)n(C4CCC(N5CC(OC)C5)CC4)c3cc2C(C)C)cn2ncnc12` (stereo not drawn) [Example 238, 6-isopropyl-5-(8-methoxy-[1,2,4]triazolo[1,5-a]pyridin-6-yl)-1-(4-(3-methoxyazetidin-1-yl)cyclohexyl)-1,3-dihydro-2H-benzo[d]imidazol-2-one], the IC50 came out at 0.26 nM.

The compound `COc1cc(-c2cc3[nH]c(=O)n([C@@H]4CCCN(C5CCCOC5)C4)c3cc2C(C)C)cn2ncnc12` (single isomer, unassigned) [Example 218] gave an IC50 of 5.19 nM. Compound `COc1cc(-c2cc3[nH]c(=O)n([C@@H]4CCCN(C5CCOC5)C4)c3cc2C(C)C)cn2ncnc12` (stereo partly drawn) [Example 217, 6-isopropyl-5-(8-methoxy-[1,2,4]triazolo[1,5-a]pyridin-6-yl)-1-((3R)-1-(tetrahydrofuran-3-yl)piperidin-3-yl)-1,3-dihydro-2H-benzo[d]imidazol-2-one] gave a concentration for half-maximal inhibition (IC50) of 5.4 nM. In the case of `CCC(CC)CN[C@H]1CC[C@@H](n2c(=O)[nH]c3cc(-c4cc(OC)c5ncnn5c4)c(C(C)C)cc32)CC1` [Example 194], the 50% inhibitory concentration (IC50) came to 0.11 nM. The value for `Cc1c(-c2cc3[nH]c(=O)n([C@H]4CC[C@@H](NC5CCOCC5)CC4)c3cc2C(C)C)cn2ncnc2c1C` [Example 187, 5-(7,8-dimethyl-[1,2,4]triazolo[1,5-a]pyridin-6-yl)-6-isopropyl-1-((1s,4s)-4-((tetrahydro-2H-pyran-4-yl)amino)cyclohexyl)-1,3-dihydro-2H-benzo[d]imidazol-2-one] was 0.8 nM.

As a reminder, the IC50 is the concentration that gives 50% inhibition. Higher therefore signals a need for much substance.
